Earlier results on one compound are cited in US12134602B2 (Yale University, priority 2011, dated 2024).

Each structure is given as a SMILES string.

For the data set the following is noted: in vivo.

Consider `C/C=C1\[C@H]2C=C(C)C[C@]1(N)c1ccc(=O)[nH]c1C2` [(−)-Huperzine A, (−)-huperzine A], for which the tolerability result was “well tolerated”.
